From patent publication EP0311193B1, “Antifungal fermentation product” (priority 1987, dated 1989)
Numbered stars: 1 amine (or outer) side, 2 acyl side, 3 side chain; on linkers, the order of the positions; unused ones are H or OH. Bridge positions count the residues as written; N and C are the ends. Square brackets hold non-standard residues; d marks the D form. Peptide text beside a SMILES is read from it. * marks the point of attachment. Orn(4R-OH,5R-OH) = O=C([C@H](C[C@@H](O)[C@@H](O)N[*:3])N[*:1])[*:2]; hTyr(3S-OH,4S-OH) = N[C@H](C(=O)O)[C@H](O)[C@@H](O)c1ccc(O)cc1; Pro(3S-OH,4S-Me) = C[C@H]1CN[C@H](C(=O)O)[C@H]1O; Gln(3R-OH) = NC(=O)C[C@@H](O)[C@H](N)C(=O)O; Hyp = O=C(O)[C@@H]1C[C@@H](O)CN1; X1 = CCC(C)CC(C)CCCCCCCCC(=O)*

Assays:
red blood cell = assay: titration/hemolysis assay (red blood cell lysis); settings: highest drug concentration that did not lyse the red blood cells; 25°C, two hours; range tested 0.39 to 400 µg/ml in 5 percent dextrose
Description: Concentration of drug in the range of from 0.39 to 400 µg/ml in 5 percent dextrose and a drug free control were employed.
In carrying out the determination, the assay tubes prepared by mixing together 2 milliliters of appropriate drug dilution and 0.5 milliliter of red blood cell suspension were gently shaken to mix the contents and then the tubes were incubated at 25°C for two hours. At the end of this time, the tubes were examined visually for complete or partial red blood cell hemolysis and compared to a drug free control.

Candida albicans [1] = assay: mice experimentally infected with Candida albicans; format: in vivo
Description: These properties point to a new antifungal drug with great potential in the therapy of human mycotic infections.

yeasts = assay: disc diffusion antifungal assay, yeasts; format: cell-based; settings: disc diffusion against the listed yeasts; 28°C or 37°C, 24 hours
Description: (§1) This may be seen in an antifungal assay employing a disc diffusion method against yeasts and filamentous fungi (molds).
(§2) In the disc diffusion method, seeded assay plates are first prepared in one of the following manners according to the type of organism.
Inocula for yeasts are prepared from overnight broth cultures then diluted into potato dextrose […] to a final concentration of either 40 percent or 70 percent transmission at 660 nm.
(§3) For three strains of Candida albicans and one strain of Saccharomyces cerevisiae, sterile saline is employed in place of potato dextrose broth. Assay plates are prepared by dilution the inoculum into appropriate molten agar medium, cooled to 45°C to obtain a final concentration of 4 percent (volume/volume).
(§4) The seeded agar media thus prepared are dispensed into petri dishes for assays (11 milliliters per dish).
The samples to be tested for production of antifungal agent are applied to 6.2 mm. filter paper discs (25 microliter/disc) and air dried at 24°C. When the sample to be tested is a crude broth, it may be centrifuged prior to application. The discs bearing the material to be tested are then applied employing sterile conditions to the seeded assay plates and the samples rewet with 25 percent sterile aqueous dimethylsulfoxide (25 µl/disc). […] Following incubation, the inhibition zones are measured and recorded. […]

filamentous fungi = assay: disc diffusion antifungal assay, filamentous fungi; format: cell-based; settings: disc diffusion against the listed filamentous fungi; 28°C or 37°C, 24 hours
Description: as §1, §2
Inocula for filamentous fungi are prepared by scraping the surface of stock plates maintained on potato dextrose agar with a moistened sterile dacron swab. The spores and mycelia are then suspended in 10 milliliters of sterile potato dextrose broth and adjusted to 70 percent transmission at 660 nm.
as §3, §4
The samples to be tested for production of antifungal agent are applied to 6.2 mm. filter paper discs (25 microliter/disc) and air dried at 24°C. When the sample to be tested is a crude broth, it may be centrifuged prior to application. […] Following incubation, the inhibition zones are measured and recorded. […]

Candida albicans [2] = assay: agar dilution assay (MIC), expanded panel of strains; format: cell-based; settings: against 5 of 34 different strains of Candida albicans, 28°C, 48 hours
Description: The activity may be seen in an agar dilution assay employing a yeast nitrogen base dextrose agar medium. In carrying out the assay, Compound I was solubilized in 10 percent dimethyl sulfoxide (DMSO) supplemented with one drop of Tween 20. Twofold dilutions were made with sterile distilled water/10 percent DMSO to obtain final drug concentrations in the agar dilution assay plates ranging from 128 to 0.06 µg/ml.
The yeast cultures, maintained in yeast maltose (YM) broth, were transferred to fresh YM medium and incubated overnight at 35°C with shaking (250 rpm). After incubation, each culture was diluted in sterile saline to yield a final concentration of 3x10⁵ to 3x10⁶ colony forming units (CFU)/ml.
Each prepared plate was inoculated using a Denley Multipoint Inoculator (Denley, Sussex, England) which delivers approximately 0.001 milliliter to the agar surface resulting in inoculation of from 3x10² to 3x10³ CFUs. The plates were incubated at 28°C for 48 hours. The minimum inhibitory concentrations (MICs) were recorded as the lowest concentrations of drug showing no growth or less than three CFU/spot.
In a similar assay, Compound I was tested against an expanded panel of 34 different strains of Candida albicans and 13 different strains of Candida parapsilosis.

| SMILES | minimum lytic concentration (MLC) (red blood cell) [µg/mL] | eradication of Candida albicans from kidneys (Candida albicans [1]; kidneys of experimentally infected mice) | survival of mice infected with Candida albicans (Candida albicans [1]; mice infected with Candida albicans) | antifungal properties (inhibition zones) (yeasts) | antifungal properties (inhibition zones) (filamentous fungi) | MIC (Candida albicans [2]) [µg/mL] |
| --- | --- | --- | --- | --- | --- | --- |
| C[C@@H]1[C@H](O)[C@@H](C)/C=C/C=C/C=C/C=C/C=C/C=C/C=C/[C@H](O[C@@H]2O[C@H](C)[C@@H](O)[C@H](N)[C@@H]2O)C[C@@H]2O[C@](O)(C[C@@H](O)C[C@@H](O)[C@H](O)CC[C@@H](O)C[C@@H](O)CC(=O)O[C@H]1C)C[C@H](O)[C@H]2C(=O)O [amphotericin B] | 12.5 | – | – | – | – | – |
| CCC(C)CC(C)CCCCCCCCC(=O)N[C@H]1C[C@@H](O)[C@@H](O)NC(=O)[C@@H]2[C@@H](O)[C@@H](C)CN2C(=O)[C@H]([C@H](O)CC(N)=O)NC(=O)[C@H]([C@H](O)[C@@H](O)c2ccc(O)cc2)NC(=O)[C@@H]2C[C@@H](O)CN2C(=O)[C@H]([C@@H](C)O)NC1=O (stereo partly drawn) [Compound I, 1-[(4R, 5R) 4,5-dihydroxy N²-(10,12-dimethyl-1-oxotetradecyl)-L-ornithine]-5-(threo-3-hydroxy-L-glutamine)echinocandin B] (X1-[Orn(4R-OH,5R-OH)]T[Hyp][hTyr(3S-OH,4S-OH)][Gln(3R-OH)][Pro(3S-OH,4S-Me)]; lactam 1-C) | – | eradicate Candida albicans from kidneys | significantly prolong the survival | good antifungal properties | good antifungal properties | > 1 |
